The OligoGym collection
HELM strings list units from the 5' end as sugar, base in round brackets, then linkage (d deoxyribose, r ribose, m 2'-O-methyl, p phosphodiester). Strings are as the collection lists them, not checked against the first reports. ss, as = sense and antisense strand
Note: test system not given here.

Details: siRNA
With “RNA1{m(A)p.r(G)p.m(G)p.r(A)p.m(C)p.r(G)p.m(G)p.r(U)p.m(A)p.r(C)p.m(U)p.r(U)p.m(U)p.r(C)p.m(G)p.r(A)p.m(A)p.r(A)p.m(G)p.r(T)p.r(T)}|RNA2{r(C)p.m(U)p.m(U)p.m(U)p.r(C)p.r(G)p.r(A)p.r(A)p.r(A)p.r(G)p.m(U)p.r(A)p.r(C)p.r(C)p.r(G)p.m(U)p.r(C)p.r(C)p.m(U)p.r(T)p.r(T)}$$$RNA1{StrandType:ss}|RNA2{StrandType:as}$” the target mRNA knockdown was 17%. “RNA1{m(A)p.r(G)p.m(U)p.r(C)p.m(C)p.r(C)p.m(U)p.r(G)p.m(G)p.r(A)p.m(G)p.r(C)p.m(C)p.r(U)p.r(U)p.r(A)p.m(A)p.r(A)p.m(C)p.r(T)p.r(T)}|RNA2{r(G)p.r(U)p.r(U)p.r(U)p.r(A)p.r(A)p.r(G)p.r(G)p.r(C)p.r(U)p.r(C)p.r(C)p.r(A)p.r(G)p.r(G)p.r(G)p.r(A)p.r(C)p.r(U)p.r(T)p.r(T)}$$$RNA1{StrandType:ss}|RNA2{StrandType:as}$” showed a target mRNA knockdown of 68%. “RNA1{m(A)p.r(G)p.m(U)p.r(U)p.m(A)p.r(A)p.m(C)p.r(C)p.m(C)p.r(G)p.m(G)p.r(G)p.m(A)p.r(C)p.m(U)p.r(U)p.m(G)p.r(G)p.m(A)p.r(T)p.r(T)}|RNA2{r(U)p.r(C)p.r(C)p.r(A)p.r(A)p.m(G)p.r(U)p.r(C)p.r(C)p.r(C)p.m(G)p.m(G)p.m(G)p.r(U)p.r(U)p.r(A)p.r(A)p.r(C)p.r(U)p.r(T)p.r(T)}$$$RNA1{StrandType:ss}|RNA2{StrandType:as}$” gave a target mRNA knockdown of 45%. “RNA1{m(A)p.r(G)p.r(C)p.r(U)p.r(C)p.r(U)p.r(U)p.r(U)p.r(G)p.r(U)p.r(C)p.m(A)p.r(C)p.r(C)p.r(U)p.r(C)p.r(U)p.r(C)p.r(U)p.r(T)p.r(T)}|RNA2{m(A)p.r(G)p.m(A)p.r(G)p.m(A)p.r(G)p.m(G)p.r(U)p.m(G)p.r(A)p.m(C)p.r(A)p.m(A)p.r(A)p.m(G)p.r(A)p.m(G)p.r(C)p.m(U)p.r(T)p.r(T)}$$$RNA1{StrandType:ss}|RNA2{StrandType:as}$” showed a target mRNA knockdown of 19%. “RNA1{m(A)p.r(U)p.m(A)p.r(C)p.m(U)p.r(U)p.m(G)p.r(G)p.m(C)p.r(G)p.m(G)p.r(G)p.m(C)p.r(U)p.m(C)p.r(U)p.m(U)p.r(U)p.m(C)p.r(T)p.r(T)}|RNA2{m(G)p.r(A)p.r(A)p.r(A)p.m(G)p.r(A)p.m(G)p.r(C)p.r(C)p.r(C)p.m(G)p.r(C)p.r(C)p.r(A)p.r(A)p.m(G)p.r(U)p.r(A)p.r(U)p.r(T)p.r(T)}$$$RNA1{StrandType:ss}|RNA2{StrandType:as}$” showed a target mRNA knockdown of 25%. With “RNA1{m(A)p.r(U)p.m(A)p.r(C)p.m(U)p.r(U)p.m(G)p.r(G)p.m(C)p.r(G)p.m(G)p.r(G)p.m(C)p.r(U)p.m(C)p.r(U)p.m(U)p.r(U)p.m(C)p.r(T)p.r(T)}|RNA2{r(G)p.r(A)p.r(A)p.r(A)p.r(G)p.r(A)p.r(G)p.r(C)p.r(C)p.r(C)p.r(G)p.r(C)p.r(C)p.r(A)p.r(A)p.r(G)p.r(U)p.r(A)p.r(U)p.r(T)p.r(T)}$$$RNA1{StrandType:ss}|RNA2{StrandType:as}$” the target mRNA knockdown was 19%. Substance “RNA1{m(A)p.r(U)p.m(C)p.r(A)p.m(C)p.r(A)p.m(A)p.r(A)p.m(C)p.r(C)p.m(C)p.r(C)p.m(U)p.r(A)p.m(G)p.r(A)p.m(G)p.r(G)p.m(G)p.r(T)p.r(T)}|RNA2{r(C)p.r(C)p.r(C)p.r(U)p.r(C)p.r(U)p.m(A)p.r(G)p.r(G)p.r(G)p.r(G)p.r(U)p.r(U)p.r(U)p.r(G)p.r(U)p.r(G)p.m(A)p.r(U)p.r(T)p.r(T)}$$$RNA1{StrandType:ss}|RNA2{StrandType:as}$” has a target mRNA knockdown of 35%. “RNA1{m(A)p.r(U)p.m(C)p.r(A)p.m(C)p.r(A)p.m(A)p.r(A)p.m(C)p.r(C)p.m(C)p.r(C)p.m(U)p.r(A)p.m(G)p.r(A)p.m(G)p.r(G)p.m(G)p.r(T)p.r(T)}|RNA2{r(C)p.r(C)p.r(C)p.r(U)p.r(C)p.r(U)p.r(A)p.r(G)p.r(G)p.r(G)p.r(G)p.r(U)p.r(U)p.r(U)p.r(G)p.r(U)p.r(G)p.r(A)p.r(U)p.r(T)p.r(T)}$$$RNA1{StrandType:ss}|RNA2{StrandType:as}$” showed a target mRNA knockdown of 9%. “RNA1{m(A)p.r(U)p.m(C)p.r(A)p.m(G)p.r(A)p.m(G)p.r(G)p.m(G)p.r(A)p.m(G)p.r(G)p.m(U)p.r(C)p.m(U)p.r(U)p.m(A)p.r(G)p.m(A)p.r(T)p.r(T)}|RNA2{r(U)p.r(C)p.r(U)p.r(A)p.r(A)p.m(G)p.r(A)p.r(C)p.r(C)p.r(U)p.r(C)p.r(C)p.r(C)p.r(U)p.m(C)p.r(U)p.m(G)p.r(A)p.m(U)p.r(T)p.r(T)}$$$RNA1{StrandType:ss}|RNA2{StrandType:as}$” showed a target mRNA knockdown of 19%. With “RNA1{m(A)p.r(U)p.m(C)p.r(C)p.m(U)p.r(G)p.m(C)p.r(A)p.m(G)p.r(A)p.m(A)p.r(G)p.m(A)p.r(A)p.m(G)p.r(C)p.m(C)p.r(U)p.m(C)p.r(T)p.r(T)}|RNA2{r(G)p.r(A)p.r(G)p.r(G)p.m(C)p.r(U)p.r(U)p.m(C)p.r(U)p.r(U)p.m(C)p.r(U)p.r(G)p.m(C)p.r(A)p.r(G)p.r(G)p.r(A)p.r(U)p.r(T)p.r(T)}$$$RNA1{StrandType:ss}|RNA2{StrandType:as}$” the target mRNA knockdown was 37%. “RNA1{m(A)p.r(U)p.m(C)p.r(G)p.m(U)p.r(C)p.m(G)p.r(U)p.m(C)p.r(A)p.m(G)p.r(G)p.m(G)p.m(U)p.r(A)p.m(A)p.r(G)p.m(G)p.r(U)p.r(T)p.r(T)}|RNA2{r(A)p.r(C)p.r(C)p.r(U)p.r(U)p.r(A)p.r(C)p.r(C)p.r(C)p.r(U)p.r(G)p.r(A)p.r(C)p.r(G)p.m(A)p.r(C)p.m(G)p.r(A)p.m(U)p.r(T)p.r(T)}$$$RNA1{StrandType:ss}|RNA2{StrandType:as}$” showed a target mRNA knockdown of 34%. With “RNA1{m(A)p.r(U)p.m(C)p.r(U)p.m(A)p.r(C)p.m(C)p.r(C)p.m(A)p.r(G)p.m(C)p.r(U)p.m(C)p.r(U)p.m(C)p.r(C)p.m(C)p.r(U)p.m(U)p.r(T)p.r(T)}|RNA2{r(A)p.r(A)p.r(G)p.r(G)p.r(G)p.r(A)p.r(G)p.r(A)p.r(G)p.r(C)p.m(U)p.r(G)p.r(G)p.r(G)p.m(U)p.r(A)p.r(G)p.r(A)p.m(U)p.r(T)p.r(T)}$$$RNA1{StrandType:ss}|RNA2{StrandType:as}$” the target mRNA knockdown was 43%. Work on “RNA1{m(A)p.r(U)p.m(G)p.r(G)p.m(G)p.r(A)p.m(G)p.r(A)p.m(A)p.r(G)p.m(U)p.r(A)p.m(G)p.r(U)p.m(C)p.r(C)p.m(C)p.r(C)p.r(C)p.r(T)p.r(T)}|RNA2{r(G)p.r(G)p.r(G)p.r(G)p.r(G)p.r(A)p.r(C)p.r(U)p.r(A)p.r(C)p.r(U)p.r(U)p.r(C)p.r(U)p.r(C)p.r(C)p.r(C)p.r(A)p.r(U)p.r(T)p.r(T)}$$$RNA1{StrandType:ss}|RNA2{StrandType:as}$” yielded a target mRNA knockdown of 71%. Work on “RNA1{m(C)p.m(G)p.m(U)p.m(A)p.m(C)p.m(G)p.r(C)p.r(G)p.r(G)p.r(A)p.r(A)p.r(U)p.r(A)p.r(C)p.r(U)p.r(U)p.r(C)p.r(G)p.r(A)p.r(T)p.r(T)}|RNA2{r(U)p.r(C)p.r(G)p.r(A)p.r(A)p.r(G)p.r(U)p.r(A)p.r(U)p.r(U)p.r(C)p.r(C)p.r(G)p.r(C)p.r(G)p.r(U)p.r(A)p.r(C)p.r(G)p.r(T)p.r(T)}$$$RNA1{StrandType:ss}|RNA2{StrandType:as}$” yielded a target mRNA knockdown of 94.8%. For “RNA1{m(C)p.r(A)p.r(G)p.m(C)p.r(A)p.r(A)p.r(A)p.m(C)p.m(C)p.r(A)p.m(C)p.r(G)p.r(A)p.m(U)p.m(C)p.r(A)p.r(A)p.m(U)p.r(A)p.r(T)p.r(T)}|RNA2{m(U)p.r(A)p.m(U)p.m(U)p.r(G)p.r(A)p.m(U)p.m(C)p.r(G)p.m(U)p.r(G)p.r(G)p.m(U)p.m(U)p.m(U)p.r(G)p.m(C)p.m(U)p.r(G)p.r(T)p.r(T)}$$$RNA1{StrandType:ss}|RNA2{StrandType:as}$”, the target mRNA knockdown was 5%. With “RNA1{m(C)p.r(A)p.r(G)p.r(A)p.r(G)p.m(C)p.r(A)p.r(A)p.m(U)p.m(U)p.r(G)p.m(U)p.m(U)p.m(U)p.r(A)p.m(C)p.m(C)p.m(U)p.r(A)p.r(T)p.r(T)}|RNA2{m(U)p.r(A)p.r(G)p.r(G)p.m(U)p.r(A)p.r(A)p.r(A)p.m(C)p.r(A)p.r(A)p.m(U)p.m(U)p.r(G)p.m(C)p.m(U)p.m(C)p.r(U)p.r(G)p.r(T)p.r(T)}$$$RNA1{StrandType:ss}|RNA2{StrandType:as}$” the target mRNA knockdown was 75%. For “RNA1{m(C)p.r(C)p.m(G)p.r(A)p.m(A)p.r(G)p.m(A)p.r(C)p.m(G)p.r(A)p.m(A)p.r(G)p.m(C)p.r(U)p.m(A)p.r(U)p.m(G)p.r(A)p.m(A)p.r(T)p.r(T)}|RNA2{r(U)p.r(U)p.r(C)p.r(A)p.r(U)p.r(A)p.m(G)p.r(C)p.r(U)p.r(U)p.r(C)p.m(G)p.r(U)p.r(C)p.r(U)p.r(U)p.r(C)p.m(G)p.m(G)p.r(T)p.r(T)}$$$RNA1{StrandType:ss}|RNA2{StrandType:as}$”, the target mRNA knockdown was 51%. Substance “RNA1{m(C)p.r(C)p.m(G)p.r(A)p.m(G)p.r(A)p.m(G)p.r(C)p.m(U)p.r(C)p.m(U)p.r(C)p.m(C)p.r(U)p.m(A)p.r(C)p.m(C)p.r(U)p.m(U)p.r(T)p.r(T)}|RNA2{r(A)p.r(A)p.r(G)p.r(G)p.r(U)p.r(A)p.r(G)p.r(G)p.r(A)p.r(G)p.r(A)p.r(G)p.r(C)p.r(U)p.r(C)p.r(U)p.r(C)p.r(G)p.r(G)p.r(T)p.r(T)}$$$RNA1{StrandType:ss}|RNA2{StrandType:as}$” has a target mRNA knockdown of 34%. “RNA1{m(C)p.r(C)p.m(G)p.r(C)p.m(C)p.r(C)p.m(G)p.r(G)p.m(C)p.r(G)p.m(G)p.r(C)p.m(G)p.r(C)p.m(C)p.r(U)p.m(U)p.r(U)p.m(A)p.r(T)p.r(T)}|RNA2{r(U)p.r(A)p.r(A)p.r(A)p.r(G)p.r(G)p.r(C)p.r(G)p.r(C)p.r(C)p.r(G)p.r(C)p.r(C)p.r(G)p.r(G)p.r(G)p.r(C)p.r(G)p.r(G)p.r(T)p.r(T)}$$$RNA1{StrandType:ss}|RNA2{StrandType:as}$” gave a target mRNA knockdown of 49%. For “RNA1{m(C)p.r(C)p.m(U)p.r(C)p.m(C)p.r(C)p.m(C)p.r(A)p.m(U)p.r(C)p.m(C)p.r(C)p.m(C)p.r(U)p.m(U)p.r(U)p.m(U)p.r(A)p.m(A)p.r(T)p.r(T)}|RNA2{r(U)p.r(U)p.r(A)p.r(A)p.r(A)p.r(A)p.r(G)p.r(G)p.r(G)p.r(G)p.r(A)p.r(U)p.m(G)p.r(G)p.m(G)p.r(G)p.m(A)p.r(G)p.m(G)p.r(T)p.r(T)}$$$RNA1{StrandType:ss}|RNA2{StrandType:as}$”, the target mRNA knockdown was 48%. In the case of “RNA1{m(C)p.r(C)p.m(U)p.r(C)p.m(G)p.r(G)p.m(A)p.r(G)p.m(A)p.r(G)p.m(U)p.r(U)p.m(C)p.r(U)p.m(A)p.r(C)p.m(U)p.r(C)p.r(U)p.r(T)p.r(T)}|RNA2{r(A)p.r(G)p.r(A)p.r(G)p.r(U)p.r(A)p.r(G)p.r(A)p.r(A)p.r(C)p.r(U)p.r(C)p.r(U)p.r(C)p.r(C)p.r(G)p.r(A)p.r(G)p.r(G)p.r(T)p.r(T)}$$$RNA1{StrandType:ss}|RNA2{StrandType:as}$”, the target mRNA knockdown was 34%.
